Patent US12084443B2, “Process of preparing a PD-1/PD-L1 inhibitor” (Incyte Corporation, priority 2020, dated 2024)

Target: T1, PD-1/PD-L1 protein/protein interaction (Homo sapiens, UniProt Q9NZQ7)
T1 construct: Recombinant human PD-L1 protein (19-238) with a His-tag at the C-terminus; purchased AcroBiosystems PD1-H5229 (PD-L1); PD1-H5257 (PD-1)
Assay: PD-1/PD-L1 Homogeneous Time-Resolved Fluorescence (HTRF) binding assay
Conditions: recombinant human PD-1 (25-167) Fc tag and PD-L1 (19-238) His-tag, 25° C., PBS pH 7.4
Description: Example A. PD-1/PD-L1 Homogeneous Time-Resolved Fluorescence (HTRF) Binding Assay The assays were conducted in a standard black 384-well polystyrene plate with a final volume of 20 μL. Inhibitors were first serially diluted in DMSO and then added to the plate wells before the addition of other reaction components. The final concentration of DMSO in the assay was 1%. The assays were carried out at 25° C. in the PBS buffer (pH 7.4) with 0.05% Tween-20 and 0.1% BSA. Recombinant human PD-L1 protein (19-238) with a His-tag at the C-terminus was purchased from AcroBiosystems (PD1-H5229). Recombinant human PD-1 protein (25-167) with Fc tag at the C-terminus was also purchased from AcroBiosystems (PD1-H5257). PD-L1 and PD-1 proteins were diluted in the assay buffer and 10 μL was added to the plate well. Plates were centrifuged and proteins were preincubated with inhibitors for 40 minutes. The incubation was followed by the addition of 10 μL of HTRF detection buffer supplemented with Europium cryptate-labeled anti-human IgG (PerkinElmer-AD0212) specific for Fc and anti-His antibody conjugated to SureLight®-Allophycocyanin (APC, PerkinElmer-AD0059H). After centrifugation, the plate was incubated at 25° C. for 60 min. before reading on a PHERAstar FS plate reader (665 nm/620 nm ratio). […]

T1 sequence (Q9NZQ7 19-238): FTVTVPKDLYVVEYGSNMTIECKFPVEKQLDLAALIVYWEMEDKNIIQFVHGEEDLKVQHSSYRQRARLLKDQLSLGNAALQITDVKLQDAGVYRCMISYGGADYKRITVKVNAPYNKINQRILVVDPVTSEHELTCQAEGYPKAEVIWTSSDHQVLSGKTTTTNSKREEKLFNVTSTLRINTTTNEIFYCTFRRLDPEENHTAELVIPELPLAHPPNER

IC50: ≤ 10 nM
Compound: Cc1c(Nc2nccc3cc(CN4CC[C@@H](O)C4)cnc23)cccc1-c1cccc(-c2nc3cc(CN4CC[C@@H](C(=O)O)C4)cc(C#N)c3o2)c1C [Compound 1, (R)-1-((7-cyano-2-(3′-((3-(((R)-3-hydroxypyrrolidin-1-yl)methyl)-1,7-naphthyridin-8-yl)amino)-2,2′-dimethyl-[1,1′-biphenyl]-3-yl)benzo[d]oxazol-5-yl)methyl)pyrrolidine-3-carboxylic acid]
